Consider two molecules from patent publication US9808434B2, “Compound for treating cancer and diabetes” (CITY OF HOPE, priority 2011, dated 2017).

Some results are limits rather than exact numbers.

Test [1] concerns isolated mouse liver mitochondria. Description: Mitochondrial swelling assay. To be noted: potassium acetate buffer with valinomycin. The procedure: Mitochondrial swelling was measured in non-respiring mouse liver mitochondria incubated in buffered isotonic potassium acetate in the presence of valinomycin (24,25). […] Absorbance of the mitochondrial suspension before and after addition test compounds was measured every 10 seconds using a Varian Cary 300 spectrophotometer (Agilent Technologies, Santa Clara, Calif.). Swelling was recorded from the decrease in absorbance at 600 nm and expressed as percentage from initial reading after addition of mitochondria.
Mitochondrial membrane swelling was detected as decrease in absorbance at 600 nm following the addition of COH-SR4 or FCCP alone or in the presence of cysclosporin A (CSA, 1 μM) on isolated mouse liver mitochondria respiring on succinate (10 mM) in the presence of rotenone (1 μM) and valinomycin (5 μM) in potassium acetate buffer. […] Arrow indicates time of addition of test compounds into the mitochondria suspension.

The subject of test [2] is human melanoma cells (SK-MEL28, A2058, A101D). Description: Oxygen consumption rate in melanoma cells, Seahorse. In kind it is cell-based. To be noted: 1-10 μM, monitored 2 h. The procedure:
(§1) Oxygen consumption rate (OCR), a measure of OxPhos, and extracellular acidification rate (ECAR), a measure of lactate production by glycolysis, were measured using a Seahorse Xf^e96 Flux Analyzers (Seahorse Biosciences, North Billerica, Mass.). Cells were seeded in DMEM media in Seahorse 96-well tissue culture plates at a density of 5×10^3 cells/well and allowed to adhere for 24 h. Prior to the assay, the media was changed to unbuffered DMEM containing 25 mM glucose, 1 mM pyruvate and 1 mM glutamine, with 0.2% fatty acid/endotoxin-free BSA (w/v) (pH 7.4) and the cells were equilibrated for 30 min at 37° C. Test compounds were injected during the assay and OCR and ECAR were measured using 2-3 min measurement periods. […] OCR was measured throughout the different injections of the stressors and test compounds (indicated by arrows in the figures).
The importance of mitochondria as oxygen sensors as well as producers of ATP and ROS has recently become a focal point of cancer research. […] OCR was continuously monitored for 2 h. Mitochondria recoupler 6-KCH (200 μM) was added to the assay system prior to injection of COH-SR4 (5 μM) as shown by arrows and OCR of A101D cells were monitored (FIG. 37B). […]

The next test has as its system A2058 p^0 cells. Put plainly: Oxygen consumption rate in mitochondrial DNA-depleted cells. In kind it is cell-based, human. The following applies: compared with wild-type A2058; data not shown. The procedure:
as §1, with “periods. Similar sets of experiments were performed in the presence of the mitochondria recoupler agent 6-KCH or the mitochondrial permeability transition (MPT) pore blocker CSA, where each compound was injected into the assay media prior to COH-SR4 or FCCP injection.” for “periods.”
To verify that COH-SR4 acts directly on mitochondrial respiration, OCR in mitochondrial DNA-depleted (p^0) A2058 cells was measured, as well as freshly isolated mouse liver mitochondria and treated with either COH-SR4 or FCCP.

For another test, the system named is A2058 cells. Put plainly: Mitochondrial membrane depolarization, TMRE. In kind it is cell-based, human. To be noted: 5 μM. The procedure:
Cells (4×10^5/well in 6-well plates) cultured overnight were pre-incubated with the fluorescent indicator of MMP tetramethylrhodamine ester (TMRE, 200 nM) or DMSO control for 30 min at 37° C. in CO2 incubator. Cells were washed with pre-warmed normal DMEM media, and test compounds were added with fresh media for the indicated times. Cells were then trypsinized, collected, centrifuged for 5 min at 800×g, and washed once in pre-warmed PBS-0.2% BSA. Cells were then resuspended in the same buffer prior to flow cytometric analysis. A total of 30,000 cells were counted per sample and data was analyzed by Cyan ADP flow cytometer with excitation/emission of 488 nm/572 nm (Beckman Coulter, Inc., Brea, Calif.). For measurements of membrane potential in isolated mouse liver mitochondria, the organelles were pre-incubated with 200 nM TMRE in MASSRO buffer (MAS buffer supplemented with 10 mM succinate, 1 μM rotenone, and 1 μM oligomycin) for 20 min at 25° C. The mitochondria were centrifuged for 5 min at 3000×g and resuspended in MASSRO buffer. Mitochondria were then added to MASSRO buffer containing the indicated concentrations of COH-SR4, FCCP or DMSO vehicle control and incubated at room temperature for 15 min. […] TMRE fluorescence was measured with a microplate reader (Tecan Infinite M200 Pro, Tecan Group Ltd., Switzerland) using an excitation emission of 545ex/580em. […]

Test [3] relates to HepG2 liver carcinoma cells. Description: Intracellular AMP:ATP ratio in HepG2. In kind it is cell-based, human. The following applies: 5 μM, 1 h. The procedure: ATP production from cells treated with test compounds were measured using the Luminescent ATP Detection Assay Kit. AMP, ATP and ADP were measured by UV-HPLC.
Total intracellular ATP production in cells treated with either 5 μM COH-SR4 or 5 μM FCCP was measured by bioluminescence assay and expressed as percentage of time-matched vehicle (DMSO) control (FIG. 84A). Intracellular AMP: ATP ratios increased in HepG2 liver carcinoma cells following 1 h treatment with either 5 μM COH-SR4 or 5 μM FCCP (FIG. 84B) and in liver of db/db mice treated with COH-SR4 (5 mg/kg B.W.) for 5 weeks (FIG. 84C). All data represented are mean±SEM, *P<0.05.

The test system of test [4] is isolated mouse liver mitochondria. Description: Oxygen consumption rate in isolated liver mitochondria. The following applies: increasing concentrations.
Experimental: Mitochondria were isolated from the livers of 10 week old male C57BL/6 mice. Mice were euthanized by CO2 inhalation followed by cervical dislocation. Livers were removed, minced with scissors, and immediately placed in ˜10 volumes of ice-cold mitochondria isolation medium (250 mM sucrose, 10 mM Tris-HCl, 1 mM EGTA, 1% fatty acid/endotoxin-free BSA, pH 7.4). The presence of BSA in the medium allowed the endogenous free fatty acids to be chelated from the homogenate suspension. The tissues were homogenized using 25-30 strokes in Potter-Elvehjem tissue grinder. Following centrifugation at 800×g for 10 min at 4° C., the fats/lipids were carefully aspirated, and the remaining supernatant was filtered through sterile 0.40 micron nylon mesh membrane and centrifuged at 8,000×g for 10 min at 4° C. […] The mitochondrial protein concentration was determined by the DC Protein Assay kit (Bio-Rad, Hercules, Calif.) with BSA as a standard. […]
Isolated mouse liver mitochondria (2 μg/well or 5 μg/well) were seeded on Seahorse 96-well plate, and respiration (OCR) was measured on mitochondria respiring either on pyruvate (10 mM) and malate (2 mM) or succinate (10 mM) and rotenone (2 μM) using a Seahorse 96 Flux Analyzers according to Rogers et al (90).
Test [5] deals with melanoma cells. Put plainly: MTT assay, melanoma cell lines of various mutational status. In kind it is cell-based. The following applies: 48 h, regardless of mutational status; read-out: IC50 values across melanoma cell lines. The procedure:
Cell density measurements were performed using a hemocytometer to count reproductive cells resistant to staining with trypan blue. Approximately 20,000 cells were plated into each well of 96-well flat-bottomed micro-titer plates. After 12 h or 24 h incubation at 37° C., medium containing either COH-SR4 (ranging 0-200 μM) or elesclomol (ranging 0-20 μM) were added to the cells. After 24 h, 48 h or 96 h incubation, 20 μL of 5 mg/mL MTT were introduced to each well and incubated for 2 h. The plates were centrifuged and medium was decanted. Cells were subsequently dissolved in 100 μl DMSO with gentle shaking for 2 h at room temperature, followed by measurement of OD570 (91).

Test [6] relates to melanoma cells. Put plainly: Colony formation assay, melanoma cells (elesclomol). In kind it is cell-based, human. To be noted: 5 μM, compared to COH-SR4. The procedure:
Cell survival was evaluated using a standard colony-forming assay. In total, 1×10^5 cells/mL were incubated with COH-SR4 (1.5 μM or 5 μM) or elesclomol (5 μM) for 24 h, and aliquots of 50 or 100 μL were added to 60 mm size petri dishes, containing 4 mL culture medium. After 7 or 10 days, adherent colonies were fixed, stained with 0.5% methylene blue for 30 min and colonies were counted using the Innotech Alpha Imager HP (91).

The test system of test [7] is B16-F0 and A2058 melanoma cells. Put plainly: TUNEL apoptosis assay, melanoma. In kind it is cell-based. The following applies: 5 μM, 24 h. The procedure: For TUNEL assay, 1×10^5 cells were grown on the cover slips for ˜12 h followed by treatment with COH-SR4 (5 μM or 10 μM) or elesclomol (5 μM) for 24 h. Apoptosis was determined by the labeling of DNA fragments with terminal deoxynucleotidyl-transferase dUTP nick-end labeling (TUNEL) assay using Promega fluorescence apoptosis detection system, and examined using Zeiss LSM 510 META laser scanning fluorescence microscope with filters 520 and 620 nm according to the protocol described previously (91). Photographs taken at identical exposure at ×400 magnification are presented.

For the molecule `N#CC(C#N)=NNc1ccc(OC(F)(F)F)cc1` [FCCP, reference compound], the “mitochondrial swelling (absorbance at 600 nm)” value in test [1] is “mitochondrial swelling was observed”. In [2], the “oxygen consumption rate (OCR)” value was “caused an abrupt increase in OCR at the lower concentration and decreases OCR at higher (>3 μM) concentrations”. In the test on A2058 p^0 cells, the “OCR in mitochondrial DNA-depleted cells” value was “failed to increase OCR”. Also, the “mitochondrial membrane depolarization (TMRE fluorescence)” value in the test with A2058 cells is given as “induced mitochondrial membrane depolarization in a time-dependent manner”. Further, in test [3], the “intracellular AMP:ATP ratios” value is “increased”. Further, the “OCR of mitochondria respiring on pyruvate and malate or succinate-rotenone” value in [4] is “dose-dependently increased OCR of mitochondria”.

For `CN(NC(=O)CC(=O)NN(C)C(=S)c1ccccc1)C(=S)c1ccccc1` [elesclomol, reference compound], the IC50 in the test on melanoma cells [5] was at least 5.8 µM. Besides, the “colony forming ability of melanoma cells” value with melanoma cells [6] is “did not significantly affect the colony forming ability”. Besides, the “apoptosis (DNA fragmentation, TUNEL)” value in [7] was “not potent”.

The IC50 is the point on the concentration scale where inhibition reaches its midpoint.
